# Measured values as given in patent publication US5017584A, “Antidepressant 2-(4,5-dihydro-1H-imidazolyl)-dihydro-1H-indoles, -1,2,3,4-tetrahydroquinolines and -1H-indoles, and methods of use thereas” (Sterling Drug Inc., priority 1985, dated 1991).
# Where “and” joins values, the source holds several entries; their conditions need not be identical. Identical values can stand only once. Like-named read-outs stand apart in the source and are kept apart here.
# Assays:
# mice = assay: In Vivo Antagonism of Clonidine-Induced Anti-Nociception (phenyl-p-quinone writhing); details: Mus musculus; for ED50: read-out: ED50, Antagonism of Clonidine Analgesia; for responders at 3 mg/kg: 3 mg/kg s.c.
# Experimental: (§1) The α2 -adrenergic antagonist activity of the compounds of the invention was determined by three screening methods, described as follows:
# In Vivo Antagonism of Clonidine-Induced Anti-Nociception
# The intraperitoneal administration of phenyl-p-quinone (PPQ) to mice elicits a nociceptive response which consists of abdominal writhing and extension of the hind limbs. This writhing response is prevented in mice pretreated with clonidine. […] To groups of thirty male mice for each experiment, the test compound dissolved in 0.9% sodium chloride was administered either subcutaneously or orally. […] The number of mice that writhed at least three times during the five minute observation period was counted. The number of mice that writhed was scored for each dose of antagonist, and the percentage reversal of clonidine-induced anti-nociception (analgesia) was calculated by dividing the number of animals writhing by the total number of test animals and multiplying the quotient by 100. The results are also expressed as an ED50, the effective dose (in mg./kg.) in 50% of the animals to effect antagonism of clonidine-induced analgesia.
# [1] = target: T1, isolated, electrically stimulated rat vas deferens (Rattus norvegicus, UniProt P22909); assay: Vas Deferens Assay: antagonism of clonidine-induced inhibition of twitch height in isolated, electrically stimulated rat vas deferens; details: for inhibition at 0.5 µM: 500 nM; for Twitch height: reversal by yohimbine
# T1 construct: isolated, electrically stimulated rat vas deferens; from tissue; host or cells: isolated rat vas deferens
# T1 sequence (P22909 1-465): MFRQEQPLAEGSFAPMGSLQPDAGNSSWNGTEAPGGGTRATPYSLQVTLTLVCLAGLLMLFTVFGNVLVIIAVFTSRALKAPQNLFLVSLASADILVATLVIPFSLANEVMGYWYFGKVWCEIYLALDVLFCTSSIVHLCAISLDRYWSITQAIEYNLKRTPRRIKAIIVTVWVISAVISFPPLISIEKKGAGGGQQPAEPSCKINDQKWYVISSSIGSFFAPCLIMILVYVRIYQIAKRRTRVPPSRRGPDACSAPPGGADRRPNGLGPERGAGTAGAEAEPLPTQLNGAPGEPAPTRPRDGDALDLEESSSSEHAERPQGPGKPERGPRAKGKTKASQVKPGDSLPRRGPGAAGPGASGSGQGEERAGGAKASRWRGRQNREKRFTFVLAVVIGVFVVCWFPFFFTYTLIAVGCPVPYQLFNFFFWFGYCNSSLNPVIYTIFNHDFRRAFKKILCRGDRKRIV
# Experimental: as §1
# Results are expressed either in terms of percent inhibition at the concentration of antagonist used or as pA2 values, determined by the Schild method; cf. Tallarida and Murray, Manual of Pharmacologic Calculations, pp. 29-32 (Springer-Verlag, 1981). The pA2 value is the negative logarithms of the concentration of antagonist required to cause a two-fold shift in the dose response curve to clonidine-induced inhibition of twitch height.
# [2] = phenylquinone writing test; cited from earlier work
# [3] = cited from earlier work
# α2-adrenergic receptor = target: T2, α2-adrenergic receptor (Rattus norvegicus, UniProt P22909); assay: Tritiated Clonidine Receptor Binding Assay (inhibition of 3H-clonidine binding to rat cerebral cortex membranes); details: for Ki: 0.4 nM 3H-clonidine, rat cerebral cortex membranes; for inhibition at 1 µM: read-out: % I, Clonidine [3H] Binding, 1000 nM
# T2 construct: Homogenates of rat cerebral cortex; from tissue; host or cells: rat cerebral cortex homogenate (membranes)
# T2 sequence (P22909 1-465): T1 sequence (P22909 1-465)
# Experimental: as §1
# The results are expressed either in terms of percent inhibition at the concentration of antagonist used or as Ki values.
# [4] = sc, read-out: % A, Antagonism of Clonidine Analgesia, 1 mg/kg s.c.
# [5] = sc, read-out: % A, Antagonism of Clonidine Analgesia
# [6] = sc, read-out: % A, Antagonism of Clonidine Analgesia, 10 mg/kg s.c.
# [7] = po, read-out: % A, Antagonism of Clonidine Analgesia, 10 mg/kg p.o.
# [8] = po, read-out: % A, Antagonism of Clonidine Analgesia, 30 mg/kg p.o.
# [9] = rat, 100 nM, read-out: % A, rat vas deferens
# [10] = rat, read-out: % A, rat vas deferens
# [11] = read-out: pA2, rat vas deferens (converted)
# [12] = sc, read-out: % A, Antagonism of Clonidine Analgesia, 30 mg/kg s.c.
# [13] = rat, read-out: % A, rat vas deferens, 100 nM
structure (smiles),measurement,setting,value
C[C@H]1c2ccccc2N(C)[C@@H]1C1=NCCN1 (relative stereo) [Example 1T],ED50,"mice; po, p.o.",41 mg/kg
same,Kb,[1],110 nM
C[C@@H]1c2ccccc2N(C)[C@@H]1C1=NCCN1 (relative stereo) [Example 1Z],responders at 0.1 mg/kg,"mice; sc, read-out: % A, Antagonism of Clonidine Analgesia, 0.1 mg/kg s.c.",80%
same,responders at 0.3 mg/kg,"mice; sc, read-out: % A, Antagonism of Clonidine Analgesia, 0.3 mg/kg s.c.",70%
same,responders at 1 mg/kg,mice; [4],30%
same,responders at 3 mg/kg,mice; [5],0%
same,responders at 10 mg/kg,mice; [6],0%
same,"agonist activity, rat vas deferens",[1]; as agonist,active
same,"antagonist activity, rat vas deferens",[1]; as antagonist,Inac.
"c1ccc2c(c1)CCN2C1=NCCN1 [1-(4,5-dihydro-1H-imidazol-2-yl)-2,3-dihydro-1H-indole]",analgesic activity,[2],active
same,"analeptic activity, antagonism of chloral hydrate",[3]; chloral hydrate,inactive
same,"analeptic activity, antagonism of pentobarbital",[3]; pentobarbital,active
"CN1c2ccc(F)cc2CC1C1=NCCN1 (centres unmarked) [Example 1A, 2-(4,5-dihydro-1H-imidazol-2-yl)-5-fluoro-2,3-dihydro-1-methyl-1H-indole]",ED50,"mice; po, p.o.",0.75 mg/kg
same,ED50,"mice; sc, s.c.",0.0071 mg/kg
same,Kb,[1],3.55 nM
same,Ki,α2-adrenergic receptor,0.92 nM
COCC1(C2=NCCN2)Cc2ccccc2N1C (centres unmarked) [Example 1AA],responders at 1 mg/kg,"mice; po, read-out: % A, Antagonism of Clonidine Analgesia, 1 mg/kg p.o.",0%
same,responders at 10 mg/kg,mice; [7],10%
same,responders at 30 mg/kg,mice; [8],70%
same,ED50,"mice; po, p.o.",21.8 mg/kg
same,ED50,"mice; sc, s.c.",2.6 mg/kg
same,"% A, rat vas deferens","[1]; 100 nM, 0.1 µM",7%
same,inhibition at 0.1 µM,[1]; [9],6%
same,inhibition at 0.5 µM,[1]; [10],52%
same,inhibition at 0.5 µM,"[1]; rat, read-out: reduced twitch height",67%
same,"% I, Clonidine [3H] Binding",α2-adrenergic receptor; concentration not given,43.5%
CSCC1(C2=NCCN2)Cc2ccccc2N1C (centres unmarked) [Example 1AB],responders at 10 mg/kg,mice; [7],0%
same,responders at 30 mg/kg,mice; [8],90%
same,Twitch height,[1],reversed by yohimbine
CC(C)N(CC1(C2=NCCN2)Cc2ccccc2N1C)C(C)C (centres unmarked) [Example 1AC],responders at 10 mg/kg,mice; [7],50%
same,responders at 30 mg/kg,mice; [8],50%
same,Twitch height,[1],reversed by yohimbine
CCN1CCN=C1C1C(C)c2ccccc2N1C (centres unmarked) [Example 1AD],fold shift of clonidine,[1]; 20 μm,3.5 fold
CC1c2ccccc2N(C)C1CC1=NCCN1 (centres unmarked) [Example 1AE],fold shift of clonidine,[1]; 20 μm,15 fold
C=C1c2ccccc2N(C)C1(C)C1=NCCN1 (centres unmarked) [Example 1AF],fold shift of clonidine,[1]; 10 μm,23.9 fold
COc1c(C2=NCCN2)n(C)c2ccccc12 [Example 1AG],fold shift of clonidine,[1]; 10 μm,3.9 fold
CN1c2ccccc2CC1C1=NCCN1 (centres unmarked) [Example 1B],ED50,"mice; sc, s.c.",12 mg/kg
same,Kb,[1],3.31 nM
same,Ki,α2-adrenergic receptor,0.46 nM
CCN1c2ccccc2CC1C1=NCCN1 (centres unmarked) [Example 1C],ED50,"mice; po, p.o.",0.098 mg/kg
same,ED50,"mice; sc, s.c.",0.034 mg/kg
same,Kb,[1],1.23 nM
same,Ki,α2-adrenergic receptor,0.91 nM
C=CCC1(C2=NCCN2)Cc2ccccc2N1C (centres unmarked) [Example 1D],ED50,"mice; po, p.o.",11.1 mg/kg
same,Kb,[1]; [11],110 nM
same,inhibition at 1 µM,α2-adrenergic receptor,85%
c1ccc(CN2c3ccccc3CC2C2=NCCN2)cc1 (centres unmarked) [Example 1E],ED50,"mice; po, p.o.",0.051 mg/kg
same,ED50,"mice; sc, s.c.",0.18 mg/kg
same,Kb,[1]; [11],11.7 nM
same,Ki,α2-adrenergic receptor,2.3 nM
CN1c2ccccc2CC1(C)C1=NCCN1 (centres unmarked) [Example 1F],ED50,"mice; po, p.o.",8.8 mg/kg
same,Kb,[1],28.2 nM
same,Ki,α2-adrenergic receptor,3.39 nM
CN1c2ccccc2CC1CC1=NCCN1 (centres unmarked) [Example 1G],responders at 30 mg/kg,mice; [12],0%
same,Ki,α2-adrenergic receptor,355 nM
CN1c2ccc(Cl)cc2CC1C1=NCCN1 (centres unmarked) [Example 1H],ED50,"mice; po, p.o.",1.5 mg/kg
same,Kb,[1],2.75 nM
CCCN1c2ccccc2CC1C1=NCCN1 (centres unmarked) [Example 1J],Kb,[1],1.74 nM
CN1c2c(Cl)cccc2CC1C1=NCCN1 (centres unmarked) [Example 1K],responders at 0.03 mg/kg,"mice; sc, read-out: % A, Antagonism of Clonidine Analgesia, 0.03 mg/kg s.c.",70%
same,responders at 1 mg/kg,mice; [4],100%
same,responders at 3 mg/kg,mice; [5],100%
same,responders at 10 mg/kg,mice; [6],100%
same,Kb,[1],1.58 nM
CCCCN1c2ccccc2CC1C1=NCCN1 (centres unmarked) [Example 1L],responders at 3 mg/kg,mice; [5],20%
same,responders at 5.5 mg/kg,"mice; sc, read-out: % A, Antagonism of Clonidine Analgesia, 5.5 mg/kg s.c.",100%
same,responders at 10 mg/kg,mice; [6],100%
same,Kb,[1],1.58 nM
C=CCN1c2ccccc2CC1C1=NCCN1 (centres unmarked) [Example 1M],ED50,"mice; po, p.o.",2.6 mg/kg
same,Kb,[1],0.851 nM
CCOCCN1c2ccccc2CC1C1=NCCN1 (centres unmarked) [Example 1N],ED50,"mice; po, p.o.",26.5 mg/kg
same,Kb,[1],15.5 nM
c1ccc2c(c1)CC(C1=NCCN1)N2 (centres unmarked) [Example 1O],ED50,"mice; po, p.o.",1.8 mg/kg
same,Kb,[1],6.92 nM
CN1c2ccc(Cc3ccccc3)cc2CC1C1=NCCN1 (centres unmarked) [Example 1P],ED50,"mice; sc, s.c.",11.3 mg/kg
same,Kb,[1]; [11],25.7 nM
c1ccc(CCN2c3ccccc3CC2C2=NCCN2)cc1 (centres unmarked) [Example 1Q],inhibition at 0.1 µM,[1]; [9],81%
same,inhibition at 0.5 µM,[1]; [10],94%
c1ccc(N2c3ccccc3CC2C2=NCCN2)cc1 (centres unmarked) [Example 1R],ED50,"mice; po, p.o.",19.8 mg/kg
same,inhibition at 0.1 µM,[1]; [13],100%
CN1c2c(Cl)cc(Cl)cc2CC1C1=NCCN1 (centres unmarked) [Example 1S],ED50,"mice; po, p.o.",60.1 mg/kg
same,Kb,[1],10 nM
c1ccc2c(c1)CCC(C1=NCCN1)N2 (centres unmarked) [Example 1U],ED50,"mice; po, p.o.",3.8 mg/kg
same,Kb,[1],9.33 nM
CN1c2ccccc2CCC1C1=NCCN1 (centres unmarked) [Example 1V],ED50,"mice; po, p.o.",2.6 mg/kg
same,Kb,[1],7.41 nM
c1ccc(C2CC(C3=NCCN3)Nc3ccccc32)cc1 (centres unmarked) [Example 1W],"% A, rat vas deferens","[1]; 0.1 nM, 0.0001 µM",3%
same,"% A, rat vas deferens","[1]; 1 nM, 0.001 µM",0% and 1%
same,inhibition at 0.0001 µM,"[1]; rat, 0.1 nM",2%
same,inhibition at 1 µM,α2-adrenergic receptor,44.6%
Cn1c(CC2=NCCN2)cc2ccccc21 [Example 1X],responders at 10 mg/kg,mice; [7],0%
same,responders at 30 mg/kg,mice; [8],10%
same,responders at 100 mg/kg,"mice; po, read-out: % A, Antagonism of Clonidine Analgesia, 100 mg/kg p.o.",50%
same,responders at 10 mg/kg,mice; [6],50%
same,responders at 30 mg/kg,mice; [12],60%
same,responders at 100 mg/kg,"mice; sc, read-out: % A, Antagonism of Clonidine Analgesia, 100 mg/kg s.c.",50%
same,Kb,[1],33.1 nM
Cn1c(C2=NCCN2)cc2ccccc21 [Example 1Y],inhibition at 0.1 µM,[1]; [13],3%
same,inhibition at 1 µM,α2-adrenergic receptor,32.5%
